Laboratory results from PubChem BioAssay (NCI).
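These data come from cells grown in 96-well plates and exposed to compound for 48 hours at five concentrations. The concentration for full growth arrest is given as TGI.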

How the values were obtained:
Experiment in all cases: NCI-60 cell line screen, 48 h
COLO 205 colon = system: COLO 205 colon
HOP-62 NSCLC = system: HOP-62 NSCLC
HOP-92 NSCLC = system: HOP-92 NSCLC
KM12 colon = system: KM12 colon
MALME-3M melanoma = system: MALME-3M melanoma
MDA-MB-435 = system: MDA-MB-435
NCI-H226 lung = system: NCI-H226 lung
OVCAR-3 ovarian = system: OVCAR-3 ovarian
SF-295 CNS = system: SF-295 CNS
SK-MEL-28 melanoma = system: SK-MEL-28 melanoma
SW-620 colon = system: SW-620 colon

COc1cc(S(=O)(=O)Nc2nc(-c3ccc(N=Cc4ccccc4O)cc3)cs2)ccc1Cl
TGI (COLO 205 colon): 61.8 µM | TGI (HOP-62 NSCLC): > 100 µM | TGI (HOP-92 NSCLC): > 100 µM | TGI (KM12 colon): > 100 µM | TGI (MALME-3M melanoma): > 100 µM | TGI (MDA-MB-435): > 100 µM | TGI (NCI-H226 lung): > 100 µM | TGI (OVCAR-3 ovarian): > 100 µM | TGI (SF-295 CNS): > 100 µM | TGI (SK-MEL-28 melanoma): > 100 µM | TGI (SW-620 colon): > 100 µM

N/C(=N\N=C\c1nc2ccccc2o1)c1cnccn1
TGI (COLO 205 colon): > 100 µM | TGI (HOP-62 NSCLC): > 100 µM | TGI (HOP-92 NSCLC): > 100 µM | TGI (KM12 colon): > 100 µM | TGI (MALME-3M melanoma): 4.38 µM | TGI (MDA-MB-435): > 100 µM | TGI (NCI-H226 lung): > 100 µM | TGI (OVCAR-3 ovarian): > 100 µM | TGI (SF-295 CNS): > 100 µM | TGI (SK-MEL-28 melanoma): > 100 µM | TGI (SW-620 colon): > 100 µM

N#CCc1nc(-c2cc3ccccc3oc2=O)cs1
TGI (COLO 205 colon): > 100 µM | TGI (HOP-62 NSCLC): > 100 µM | TGI (HOP-92 NSCLC): > 100 µM | TGI (KM12 colon): > 100 µM | TGI (MALME-3M melanoma): > 100 µM | TGI (MDA-MB-435): > 100 µM | TGI (NCI-H226 lung): > 100 µM | TGI (SF-295 CNS): > 100 µM | TGI (SK-MEL-28 melanoma): > 100 µM | TGI (SW-620 colon): > 100 µM

Cc1nc2ccc(N=Nc3c(C)noc3C)cc2[nH]1
TGI (COLO 205 colon): 34.5 µM | TGI (HOP-62 NSCLC): > 100 µM | TGI (HOP-92 NSCLC): 60.2 µM | TGI (KM12 colon): > 100 µM | TGI (MALME-3M melanoma): > 100 µM | TGI (MDA-MB-435): > 100 µM | TGI (NCI-H226 lung): > 100 µM | TGI (OVCAR-3 ovarian): 84.2 µM | TGI (SF-295 CNS): > 100 µM | TGI (SK-MEL-28 melanoma): > 100 µM | TGI (SW-620 colon): > 100 µM

NCCc1ccc(S(=O)(=O)O)cc1[N+](=O)[O-]
TGI (COLO 205 colon): > 100 µM | TGI (HOP-62 NSCLC): > 100 µM | TGI (HOP-92 NSCLC): > 100 µM | TGI (KM12 colon): > 100 µM | TGI (MALME-3M melanoma): > 100 µM | TGI (MDA-MB-435): > 100 µM | TGI (NCI-H226 lung): > 100 µM | TGI (OVCAR-3 ovarian): > 100 µM | TGI (SF-295 CNS): > 100 µM | TGI (SK-MEL-28 melanoma): > 100 µM | TGI (SW-620 colon): > 100 µM

COc1ccc(/C=C2\C[C@H]3[C@@H]4CC=C5C[C@@H](O)CC[C@]5(C)[C@H]4CC[C@]3(C)\C2=N\O)cc1
TGI (COLO 205 colon): 29 µM | TGI (HOP-62 NSCLC): > 100 µM | TGI (HOP-92 NSCLC): > 100 µM | TGI (KM12 colon): > 100 µM | TGI (MALME-3M melanoma): 76.6 µM | TGI (MDA-MB-435): > 100 µM | TGI (NCI-H226 lung): 94.1 µM | TGI (OVCAR-3 ovarian): 29.7 µM | TGI (SF-295 CNS): 34.8 µM | TGI (SK-MEL-28 melanoma): 72.8 µM | TGI (SW-620 colon): > 100 µM

Cc1nc2ccc(S(=O)(=O)O)cc2c(=O)n1-c1ccc(C(=O)NN2C(=O)C(Cl)C2c2cccs2)cc1 (stereo not drawn)
TGI (COLO 205 colon): > 100 µM | TGI (HOP-62 NSCLC): 60.1 µM | TGI (HOP-92 NSCLC): > 100 µM | TGI (KM12 colon): > 100 µM | TGI (MALME-3M melanoma): > 100 µM | TGI (MDA-MB-435): 89.8 µM | TGI (NCI-H226 lung): > 100 µM | TGI (OVCAR-3 ovarian): > 100 µM | TGI (SF-295 CNS): > 100 µM | TGI (SK-MEL-28 melanoma): > 100 µM | TGI (SW-620 colon): > 100 µM

CC(C)=CCC[C@@H](C)C1=C(N)C(O)=C(C)C(=O)C1=O
TGI (COLO 205 colon): > 67.9 µM | TGI (HOP-62 NSCLC): > 75 µM | TGI (HOP-92 NSCLC): > 75 µM | TGI (KM12 colon): > 75 µM | TGI (MALME-3M melanoma): > 75 µM | TGI (MDA-MB-435): > 75 µM | TGI (NCI-H226 lung): > 75 µM | TGI (OVCAR-3 ovarian): > 75 µM | TGI (SF-295 CNS): > 75 µM | TGI (SK-MEL-28 melanoma): > 75 µM | TGI (SW-620 colon): > 75 µM

CC[C@@H]1CC[C@@H]2[C@H](CC[C@]3(C)[C@@H](O[N+](=O)[O-])CC[C@@H]23)[C@H]1C(C)=O
TGI (COLO 205 colon): 24.4 µM | TGI (HOP-62 NSCLC): > 100 µM | TGI (HOP-92 NSCLC): 70.2 µM | TGI (KM12 colon): 80.7 µM | TGI (MALME-3M melanoma): 65.3 µM | TGI (MDA-MB-435): > 100 µM | TGI (NCI-H226 lung): > 100 µM | TGI (OVCAR-3 ovarian): > 100 µM | TGI (SF-295 CNS): > 100 µM | TGI (SK-MEL-28 melanoma): > 100 µM | TGI (SW-620 colon): > 100 µM

CC(=O)n1c2ccc(Br)cc2c2nc3ccccc3nc21
TGI (COLO 205 colon): > 100 µM | TGI (HOP-62 NSCLC): > 100 µM | TGI (HOP-92 NSCLC): > 100 µM | TGI (KM12 colon): > 100 µM | TGI (MALME-3M melanoma): > 100 µM | TGI (MDA-MB-435): > 100 µM | TGI (NCI-H226 lung): > 100 µM | TGI (OVCAR-3 ovarian): > 100 µM | TGI (SF-295 CNS): > 100 µM | TGI (SK-MEL-28 melanoma): > 100 µM | TGI (SW-620 colon): > 100 µM

CN(Cc1cccc2ccsc12)/N=C\c1ccc(Cl)cc1
TGI (COLO 205 colon): > 100 µM | TGI (HOP-62 NSCLC): > 100 µM | TGI (HOP-92 NSCLC): > 100 µM | TGI (KM12 colon): > 100 µM | TGI (MALME-3M melanoma): > 100 µM | TGI (MDA-MB-435): > 100 µM | TGI (NCI-H226 lung): > 100 µM | TGI (OVCAR-3 ovarian): 48.3 µM | TGI (SF-295 CNS): > 100 µM | TGI (SK-MEL-28 melanoma): > 100 µM | TGI (SW-620 colon): > 100 µM

O=[N+]([O-])c1ccc2c3c1[C@@H]1O[C@@H]1c1cccc(c1-3)[C@@H]1O[C@H]21
TGI (COLO 205 colon): 23.1 µM | TGI (HOP-62 NSCLC): 34.4 µM | TGI (HOP-92 NSCLC): 28.6 µM | TGI (KM12 colon): 10.1 µM | TGI (MALME-3M melanoma): 12.7 µM | TGI (MDA-MB-435): 5.22 µM | TGI (NCI-H226 lung): > 80.9 µM | TGI (OVCAR-3 ovarian): 10.9 µM | TGI (SF-295 CNS): 40.8 µM | TGI (SK-MEL-28 melanoma): > 22.1 µM | TGI (SW-620 colon): 6.7 µM

O[C@@H]1[C@H](OC2c3ccccc3-c3ccccc32)[C@H](OCc2ccccc2)[C@@H]2OC[C@H]1O2
TGI (COLO 205 colon): > 100 µM | TGI (HOP-62 NSCLC): 80 µM | TGI (HOP-92 NSCLC): > 100 µM | TGI (KM12 colon): > 100 µM | TGI (MALME-3M melanoma): > 100 µM | TGI (MDA-MB-435): > 100 µM | TGI (NCI-H226 lung): > 100 µM | TGI (OVCAR-3 ovarian): > 100 µM | TGI (SF-295 CNS): > 100 µM | TGI (SK-MEL-28 melanoma): > 100 µM | TGI (SW-620 colon): > 100 µM

O=C1CSC(c2cc3cc(Br)ccc3nc2Cl)N1c1ccc(Cl)cc1 (stereo not drawn)
TGI (COLO 205 colon): 41.2 µM | TGI (HOP-62 NSCLC): > 100 µM | TGI (HOP-92 NSCLC): > 100 µM | TGI (KM12 colon): 47.6 µM | TGI (MALME-3M melanoma): 75.8 µM | TGI (MDA-MB-435): 49.5 µM | TGI (NCI-H226 lung): > 100 µM | TGI (OVCAR-3 ovarian): 41.3 µM | TGI (SF-295 CNS): 37.6 µM | TGI (SK-MEL-28 melanoma): > 100 µM | TGI (SW-620 colon): > 100 µM

CS(=O)(=O)CCC1CCC(=O)O1 (stereo not drawn)
TGI (HOP-62 NSCLC): > 100 µM | TGI (HOP-92 NSCLC): > 100 µM | TGI (KM12 colon): > 100 µM | TGI (MALME-3M melanoma): > 100 µM | TGI (MDA-MB-435): > 100 µM | TGI (NCI-H226 lung): > 100 µM | TGI (OVCAR-3 ovarian): > 100 µM | TGI (SF-295 CNS): > 100 µM | TGI (SK-MEL-28 melanoma): > 100 µM | TGI (SW-620 colon): > 100 µM
